Assay results reported in US10208056B2, “Condensed tricyclic compounds as protein kinase inhibitors” (FUNDACIÓN DEL SECTOR PÚBLICO ESTATAL CENTRO NACIONAL DE …, priority 2015, dated 2019).
Where two headings read alike, the source gives them in different places.

Legend:
Haspin kinase = Haspin kinase (Homo sapiens (Human), UniProt Q8TF76); assay: Haspin kinase assay (ADP-Glo); assay type: biochemical; settings: ATP 150 μM
Outline: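 Compounds in 1:3 serial dilutions (1% DMSO final) were incubated 60 min at 30 °C with 20 nM recombinant GST-Haspin kinase domain and 150 μM ATP, without substrate, in pH 7.4 HEPES/MgCl2 buffer. ADP formed was read by luciferase luminescence and normalized to uninhibited enzyme to give % inhibition.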

CDK19/Cyclin C = CDK19/Cyclin C (Homo sapiens (Human), UniProt Q9BWU1); assay: CDK19/Cyclin C binding assay (LanthaScreen Eu-Kinase Binding Assay); settings: read-out: CDK19-CYCC IC50
CDK19/Cyclin C, sequence (Q9BWU1 whole entry): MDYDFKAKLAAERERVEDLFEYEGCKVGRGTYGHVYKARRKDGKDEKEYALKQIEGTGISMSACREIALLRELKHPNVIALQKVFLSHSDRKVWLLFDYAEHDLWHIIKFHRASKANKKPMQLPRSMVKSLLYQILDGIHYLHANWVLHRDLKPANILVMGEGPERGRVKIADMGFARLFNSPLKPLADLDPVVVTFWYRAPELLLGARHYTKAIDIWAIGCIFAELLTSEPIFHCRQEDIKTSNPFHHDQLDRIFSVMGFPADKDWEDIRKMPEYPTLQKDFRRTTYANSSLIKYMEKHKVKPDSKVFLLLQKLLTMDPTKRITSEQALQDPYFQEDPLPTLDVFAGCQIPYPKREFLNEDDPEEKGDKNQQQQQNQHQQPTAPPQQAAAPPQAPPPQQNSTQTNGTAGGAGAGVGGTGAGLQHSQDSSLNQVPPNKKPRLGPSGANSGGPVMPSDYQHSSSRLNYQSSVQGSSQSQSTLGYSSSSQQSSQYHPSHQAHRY
CDK19/Cyclin C, sequence (P24863 whole entry partner): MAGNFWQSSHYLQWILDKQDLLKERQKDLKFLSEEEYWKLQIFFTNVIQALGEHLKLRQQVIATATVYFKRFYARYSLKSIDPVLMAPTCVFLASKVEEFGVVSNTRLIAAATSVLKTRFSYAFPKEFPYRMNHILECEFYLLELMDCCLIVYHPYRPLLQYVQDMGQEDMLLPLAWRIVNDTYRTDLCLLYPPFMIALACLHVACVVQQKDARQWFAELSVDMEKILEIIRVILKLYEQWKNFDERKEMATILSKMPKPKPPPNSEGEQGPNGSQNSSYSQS
Outline: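 LanthaScreen TR-FRET tracer-displacement format with 2 nM Cdk19-Cyclin C, 20 nM tracer and 2 nM Eu-anti-GST antibody. The buffer was 50 mM HEPES pH 7.5, 10 mM MgCl2, 1 mM EGTA, 0.01% Brij-35, with 1% DMSO final. Compounds were tested as 1:3 serial dilutions and incubated for 60 min at 25 °C.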

MDA-MB-231 = assay: In vitro cell proliferation assay (CellTiter-Glo), MDA-MB-231; assay type: cell-based; settings: Homo sapiens, MDA-MB-231, growth inhibition, read-out: GI50 MDA-MB-231
intracellular CDK8 = intracellular CDK8 (Homo sapiens (Human), UniProt P49336); assay: Cellular CDK8 inhibition assay, western blot P-STAT1 (S727) in IFN-γ treated SW620 cells; assay type: cell-based; settings: SW620, IFNγ treated, read-out: SW620 P-STAT1(S727) w IFNγ
intracellular CDK8, sequence (P49336 whole entry): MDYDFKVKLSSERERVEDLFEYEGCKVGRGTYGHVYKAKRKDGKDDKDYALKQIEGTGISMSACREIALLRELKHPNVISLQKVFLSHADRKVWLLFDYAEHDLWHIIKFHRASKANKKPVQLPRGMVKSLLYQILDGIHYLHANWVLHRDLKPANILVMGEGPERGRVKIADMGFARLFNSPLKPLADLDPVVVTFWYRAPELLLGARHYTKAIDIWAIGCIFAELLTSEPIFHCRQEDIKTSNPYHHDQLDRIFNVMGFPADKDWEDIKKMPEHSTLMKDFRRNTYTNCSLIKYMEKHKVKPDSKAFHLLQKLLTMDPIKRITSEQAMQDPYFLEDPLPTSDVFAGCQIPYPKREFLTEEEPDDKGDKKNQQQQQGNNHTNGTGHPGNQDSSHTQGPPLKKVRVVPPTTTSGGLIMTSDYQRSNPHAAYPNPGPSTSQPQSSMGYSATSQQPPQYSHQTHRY
intracellular CDK8, sequence (P24863 whole entry partner): as the sequence (P24863 whole entry partner) above
intracellular CDK8, sequence (Q93074 whole entry partner): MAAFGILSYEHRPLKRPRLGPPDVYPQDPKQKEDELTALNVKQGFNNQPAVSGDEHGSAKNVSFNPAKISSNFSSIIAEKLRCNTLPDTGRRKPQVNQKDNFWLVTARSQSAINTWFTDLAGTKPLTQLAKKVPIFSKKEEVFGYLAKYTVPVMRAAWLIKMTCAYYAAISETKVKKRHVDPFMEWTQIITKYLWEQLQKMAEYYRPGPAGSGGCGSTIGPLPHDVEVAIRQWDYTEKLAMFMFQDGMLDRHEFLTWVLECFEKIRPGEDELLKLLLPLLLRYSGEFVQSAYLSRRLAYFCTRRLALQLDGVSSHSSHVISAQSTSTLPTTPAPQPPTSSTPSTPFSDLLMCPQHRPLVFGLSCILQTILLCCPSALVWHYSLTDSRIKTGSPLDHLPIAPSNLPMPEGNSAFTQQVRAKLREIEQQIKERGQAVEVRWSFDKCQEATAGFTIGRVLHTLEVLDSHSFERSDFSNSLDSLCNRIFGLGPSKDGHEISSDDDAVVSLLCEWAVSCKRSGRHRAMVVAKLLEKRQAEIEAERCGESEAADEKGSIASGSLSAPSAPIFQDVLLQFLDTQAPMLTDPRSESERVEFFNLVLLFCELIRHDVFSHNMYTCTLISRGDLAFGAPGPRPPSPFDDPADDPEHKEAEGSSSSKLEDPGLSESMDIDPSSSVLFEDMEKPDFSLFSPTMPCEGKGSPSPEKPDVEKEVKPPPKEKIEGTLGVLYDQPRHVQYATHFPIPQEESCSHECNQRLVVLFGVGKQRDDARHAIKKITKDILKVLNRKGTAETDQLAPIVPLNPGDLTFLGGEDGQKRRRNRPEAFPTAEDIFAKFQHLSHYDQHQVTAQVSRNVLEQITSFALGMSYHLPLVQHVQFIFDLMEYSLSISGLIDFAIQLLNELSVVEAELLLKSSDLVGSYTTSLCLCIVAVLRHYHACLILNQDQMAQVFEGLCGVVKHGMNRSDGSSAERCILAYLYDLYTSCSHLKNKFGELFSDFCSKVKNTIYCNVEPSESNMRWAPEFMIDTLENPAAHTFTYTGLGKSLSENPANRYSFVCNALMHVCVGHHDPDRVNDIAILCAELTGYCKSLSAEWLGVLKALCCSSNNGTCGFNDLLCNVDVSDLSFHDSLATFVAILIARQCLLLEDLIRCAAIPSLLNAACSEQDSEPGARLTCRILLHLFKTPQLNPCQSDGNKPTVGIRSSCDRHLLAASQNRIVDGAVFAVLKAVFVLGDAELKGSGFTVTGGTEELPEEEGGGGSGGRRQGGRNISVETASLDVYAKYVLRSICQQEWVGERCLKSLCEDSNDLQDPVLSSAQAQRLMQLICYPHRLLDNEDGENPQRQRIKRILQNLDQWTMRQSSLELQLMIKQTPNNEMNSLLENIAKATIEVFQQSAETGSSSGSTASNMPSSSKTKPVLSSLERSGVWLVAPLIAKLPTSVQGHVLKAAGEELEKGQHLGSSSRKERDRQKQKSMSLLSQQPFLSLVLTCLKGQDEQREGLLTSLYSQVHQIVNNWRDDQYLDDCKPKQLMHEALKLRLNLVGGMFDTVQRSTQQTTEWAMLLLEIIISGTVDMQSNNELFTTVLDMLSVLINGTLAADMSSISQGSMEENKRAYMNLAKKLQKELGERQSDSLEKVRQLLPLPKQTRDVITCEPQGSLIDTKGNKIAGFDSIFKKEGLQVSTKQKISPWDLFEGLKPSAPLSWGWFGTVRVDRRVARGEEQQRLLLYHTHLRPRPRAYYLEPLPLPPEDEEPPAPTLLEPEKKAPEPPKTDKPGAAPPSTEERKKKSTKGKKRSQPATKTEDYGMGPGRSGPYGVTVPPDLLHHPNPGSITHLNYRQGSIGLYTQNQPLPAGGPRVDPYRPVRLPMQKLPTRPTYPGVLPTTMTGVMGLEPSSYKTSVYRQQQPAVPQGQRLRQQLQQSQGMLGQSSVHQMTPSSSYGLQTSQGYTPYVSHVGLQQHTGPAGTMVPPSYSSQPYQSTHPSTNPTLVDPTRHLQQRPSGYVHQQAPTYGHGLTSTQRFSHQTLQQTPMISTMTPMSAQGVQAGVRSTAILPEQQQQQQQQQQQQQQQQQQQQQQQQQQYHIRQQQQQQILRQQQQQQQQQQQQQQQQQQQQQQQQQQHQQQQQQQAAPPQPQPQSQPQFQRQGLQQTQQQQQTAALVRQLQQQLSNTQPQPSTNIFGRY

Haspin kinase, sequence (Q8TF76 484-798): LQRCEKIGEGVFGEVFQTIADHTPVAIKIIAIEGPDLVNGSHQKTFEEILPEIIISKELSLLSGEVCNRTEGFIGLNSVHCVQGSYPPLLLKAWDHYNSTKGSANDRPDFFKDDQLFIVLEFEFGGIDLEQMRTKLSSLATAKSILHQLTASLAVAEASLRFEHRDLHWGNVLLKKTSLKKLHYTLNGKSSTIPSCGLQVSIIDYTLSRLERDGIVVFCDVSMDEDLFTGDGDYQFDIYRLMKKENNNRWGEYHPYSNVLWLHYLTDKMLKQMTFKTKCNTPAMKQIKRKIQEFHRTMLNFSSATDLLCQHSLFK

SMILES	IC50 (Haspin kinase)	IC50 (CDK19/Cyclin C)	GI50 (MDA-MB-231; semiquantitative)	EC50 (intracellular CDK8; semiquantitative)	GI50 (MDA-MB-231; quantitative)	EC50 (intracellular CDK8; quantitative)
NC(=O)c1cc2c([nH]1)-c1ccncc1O[C@H]2C1CCOCC1 (single isomer, unassigned) [Example 72]	406 nM	14.2 nM	10000 to 100000 nM	< 500 nM	–	–
CCn1c(C(N)=O)cc2c1-c1ccncc1OC2(C)C [Example 43]	36.8 nM	1.09 nM	–	–	3500 nM	0.064 nM
CCn1c(C(N)=O)c(-c2ccccc2OC)c2c1-c1ccncc1OC2(C)C [Example 68]	354 nM	16.4 nM	10000 to 100000 nM	< 500 nM	–	–
CC1(C)Oc2cnccc2-c2c1cc(C(N)=O)n2CCF [Example 52]	22.4 nM	1.41 nM	1000 to 10000 nM	< 500 nM	–	–
